Our source for the Kd values is paper PMC4536998 (Oncotarget, 2015).

The target in the assay is T1, embryonic ectoderm development (EED) (Homo sapiens, UniProt O75530).
T1 construct: recombinant EED
The assay is described as follows: SPR (Biacore […], EED immobilized on CM5 chip, […] Langmuir fit); supported by competitive co-IP against EZH2. Format: binding.

T1 sequence (O75530 2-441): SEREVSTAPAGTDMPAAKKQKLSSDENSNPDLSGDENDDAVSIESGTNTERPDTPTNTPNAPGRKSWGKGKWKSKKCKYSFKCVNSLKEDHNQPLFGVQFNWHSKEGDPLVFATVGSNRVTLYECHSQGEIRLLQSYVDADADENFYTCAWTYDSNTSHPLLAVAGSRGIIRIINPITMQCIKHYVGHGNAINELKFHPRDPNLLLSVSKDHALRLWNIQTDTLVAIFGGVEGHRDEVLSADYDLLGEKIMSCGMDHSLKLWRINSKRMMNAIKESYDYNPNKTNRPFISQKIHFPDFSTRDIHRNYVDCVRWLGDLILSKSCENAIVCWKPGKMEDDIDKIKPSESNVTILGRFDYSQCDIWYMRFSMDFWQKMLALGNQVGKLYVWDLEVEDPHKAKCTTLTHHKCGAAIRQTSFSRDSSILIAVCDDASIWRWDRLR

`O=C(O[C@@H]1Cc2c(O)cc(O)cc2O[C@@H]1c1cc(O)c(O)c(O)c1)c1cc(O)c(O)c(O)c1` [1E7, EGCG]: the Kd turned out to be 15.1 µM.

The term Kd denotes the constant that tells how readily two partners part at equilibrium. Higher therefore signals weaker binding.
